Experiments:
Mice = assay: analgesic activity by pressure stimulation method (tail base); assay type: in vivo; settings: dose that induced 50 percent of % of MPE; for ED50(mg/kg) p.o.: oral administration; for ED50(mg/kg) s.c.: subcutaneous administration (skin in the backs)
Description: The analgesic activities of the peptide derivatives of the present invention were evaluated by pressure stimulation method. Mice were subjected to pressure stimulation at the bases of their tails at the rate of 10 mmHg/second. […] For the experiments, mice that normally responded to a pressure of 40-50 mmHg were used. The maximum stimulating pressure was 100 mmHg. Analgesic activity was calculated as percent of maximum possible effect (% of MPE) according to the equation: % of MPE =(Pt - Po)/(Pc - Po)× 100 [formula] wherein Po is the pain reaction threshold before the administration of a drug; Pt is the pain reaction threshold "t" minutes after the administration of the drug; and Pc is the maximum stimulating pressure. ED50 values were calculated based on dose response curves as doses that induced 50 percent of % of MPE and analgesic activities of the drugs were compared.

[1] = intraventricular administration, relative to morphine; cited from earlier work
[2] = cited from earlier work

Molecule	ED50(mg/kg) p.o. (Mice) [mg/kg]	ED50(mg/kg) s.c. (Mice) [mg/kg]	other results
N=C(N)NCCC[C@@H](NC(=O)[C@H](Cc1ccc(O)cc1)NC(=N)N)C(=O)N[C@@H](Cc1ccccc1)C(=O)NCCC(N)=O [H2NC(NH)-Tyr-D-Arg-Phe-NHCH2CH2CONH2]	10.7	0.13	–
CCN(CCC(=O)O)C(=O)[C@H](Cc1ccccc1)NC(=O)[C@@H](CCCNC(=N)N)NC(=O)[C@H](Cc1ccc(O)cc1)NC(=N)N [H2NC(NH)-Tyr-D-Arg-Phe-N(CH2CH3)CH2CH2COOH]	16.0	0.15	–
CN(CC(=O)O)C(=O)[C@H](Cc1ccccc1)NC(=O)[C@@H](CCCNC(=N)N)NC(=O)[C@H](Cc1ccc(O)cc1)NC(=N)N [H2NC(NH)-Tyr-D-Arg-Phe-N(CH3)CH2COOH]	17.8	0.39	–
N=C(N)NCCC[C@@H](NC(=O)[C@H](Cc1ccc(O)cc1)NC(=N)N)C(=O)N[C@@H](Cc1ccccc1)C(=O)NCCCO [H2NC(NH)-Tyr-D-Arg-Phe-NHCH2CH2CH2OH]	–	0.88	–
N=C(N)NCCC[C@@H](NC(=O)[C@H](Cc1ccc(O)cc1)NC(=N)N)C(=O)N[C@@H](Cc1ccccc1)C(=O)NCCC(=O)O [H2NC(NH)-Tyr-D-Arg-Phe-NHCH2CH2COOH]	5.8	0.14	–
Dermorphine	–	–	analgesic effect higher than morphine [1]: about 1,000 fold
Tyr-D-Arg^2-Phe-Sarcosine [TAPS]	–	–	potency relative to dermorphin ([2]; opioid effects such as analgesia, relative to dermorphin): about 6 times; duration of sufficient analgesic effects ([2]; oral administration): 3 h
CN(CC(N)=O)C(=O)[C@H](Cc1ccccc1)NC(=O)[C@@H](CCCNC(=N)N)NC(=O)[C@H](Cc1ccc(O)cc1)NC(=N)N [H2NC(NH)-Tyr-(D)Arg-Phe-N(CH3)CH2CONH2]	–	0.27	–
CN(C)C(=O)[C@H](Cc1ccccc1)NC(=O)[C@@H](CCCNC(=N)N)NC(=O)[C@H](Cc1ccc(O)cc1)NC(=N)N [H2NC(NH)-Tyr-(D)Arg-Phe-N(Me)2]	–	1.22	–
CN(CCC(=O)O)C(=O)[C@H](Cc1ccccc1)NC(=O)[C@@H](CCCNC(=N)N)NC(=O)[C@H](Cc1ccc(O)cc1)NC(=N)N [H2NC(NH)-Tyr-D-Arg-Phe-N(CH3)CH2CH2COOH]	6.6	0.10	–
COC(=O)CCN(C)C(=O)[C@H](Cc1ccccc1)NC(=O)[C@@H](CCCNC(=N)N)NC(=O)[C@H](Cc1ccc(O)cc1)NC(=N)N [H2NC(NH)-Tyr-D-Arg-Phe-N(CH3)CH2CH2COOCH3]	8.9	0.12	–

From patent EP0755942B1, “N-AMIDINO […]” (DAIICHI PHARMACEUTICAL CO., LTD., priority 1994, dated 1995)
